The values below come from PubChem BioAssay (NCI).

Where “and” joins values, the source holds several entries; their conditions need not be identical. Equal entries are not always repeated.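 48-hour exposure; five concentrations; linearly interpolated endpoints. At the GI50, growth is halved. TGI marks complete inhibition of growth.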

Some test systems named below: CAKI-1 renal; COLO 205 colon; LOX IMVI melanoma; MCF7 breast; MOLT-4 leukemia; NCI/ADR-RES ovarian; SN12C renal; SNB-19 CNS; HS 578T breast; TK-10 renal.
What all share (assay): DTP human tumour cell line panel, 48 h

As usually defined, the GI50 is the concentration that inhibits growth by half. As usually defined, the TGI is the concentration giving total growth inhibition. Read a high TGI as less potent growth arrest. In the case of `O=C1Nc2ccc(Br)cc2C12CC(c1ccccc1)=NN2` (stereo not given), the GI50 in the assay with CAKI-1 renal was 2.8 µM; in the assay with COLO 205 colon, 3.79 µM; with LOX IMVI melanoma, 7.21 µM; in the assay on MCF7 breast it was 2.48 µM; in the assay on MOLT-4 leukemia it was 5.04 µM; with NCI/ADR-RES ovarian it was 3.89 µM. Also, the results for the GI50 in the assay with SN12C renal and with SNB-19 CNS were 6.8 µM and 9.25 µM, respectively. Moreover, the concentration for total growth inhibition (TGI) with CAKI-1 renal is 16.6 µM; with COLO 205 colon, 15.2 µM; in the assay on LOX IMVI melanoma it was 22.9 µM; with MCF7 breast, 64.5 µM; with MOLT-4 leukemia, 30.5 µM; in the assay with NCI/ADR-RES ovarian, 35.8 µM. Further, the TGI is 51.2 µM with SN12C renal and > 100 µM in the assay on SNB-19 CNS.

As for `COC1=C(N)C(=O)c2nc(-c3nc(C(=O)O)c(C)c(-c4ccc(OC)c(OC)c4O)c3N)ccc2C1=O`, the TGI is 0.0412 µM in the assay on HS 578T breast; 0.0805 µM and 0.0445 µM and < 0.0167 µM in the assay on MOLT-4 leukemia; 0.0151 µM and 0.094 µM and 0.0169 µM in the assay on NCI/ADR-RES ovarian; 0.00884 µM and 0.0161 µM in the assay on SN12C renal; 0.00354 µM and 0.0228 µM and < 0.011 µM in the assay with SNB-19 CNS; 0.00795 µM and 0.0706 µM in the assay with TK-10 renal. Also, the 50% growth inhibitory concentration (GI50) was 0.024 µM and 0.00755 µM with LOX IMVI melanoma; 0.00121 µM and 0.00809 µM in the assay with NCI/ADR-RES ovarian; 0.00175 µM and 0.0149 µM in the assay with SN12C renal.

Consider `NC(N)=N/N=C/c1c(-c2ccsc2)nc2n1CCS2`, for which the GI50 was 19.8 µM with COLO 205 colon; 34.9 µM with HS 578T breast; 16.3 µM with LOX IMVI melanoma; 18 µM in the assay on MCF7 breast; 15.3 µM in the assay with MOLT-4 leukemia; > 100 µM in the assay on NCI/ADR-RES ovarian. For the same compound, the GI50 with SN12C renal was 15.5 µM; with SNB-19 CNS, 26.9 µM; with TK-10 renal, 26 µM. Further, the total growth inhibition concentration (TGI) in the assay on COLO 205 colon is 48.5 µM; in the assay with HS 578T breast, > 100 µM; in the assay on LOX IMVI melanoma, 30.6 µM; with MCF7 breast, 50.2 µM; in the assay on MOLT-4 leukemia, 42.9 µM; in the assay with NCI/ADR-RES ovarian it was > 100 µM. Besides, the TGI is 54.9 µM with SN12C renal, > 100 µM in the assay on SNB-19 CNS and 61.1 µM with TK-10 renal.

Regarding `CC(C)=CCc1cc2c(cc1O)C1=C(C(=O)C3=C(C1=O)S(=O)(=O)CCN3)C(C=C(C)C)O2` (stereo not given), the GI50 with COLO 205 colon is 0.64 µM; in the assay on HS 578T breast, 1.31 µM; with LOX IMVI melanoma, 0.492 µM; in the assay on MCF7 breast, 0.354 µM; with MOLT-4 leukemia it was 0.718 µM; with NCI/ADR-RES ovarian it was 6.66 µM. Also, the GI50 in the assay on SN12C renal was 0.294 µM; in the assay on SNB-19 CNS, 0.651 µM; with TK-10 renal, 4.96 µM. Further, the TGI turned out to be 2.41 µM with COLO 205 colon; 8.15 µM with HS 578T breast; 2.06 µM in the assay with LOX IMVI melanoma; 1.31 µM with MCF7 breast; 3.99 µM in the assay with MOLT-4 leukemia; 16.7 µM with NCI/ADR-RES ovarian. In addition, the results for the TGI in the assay with SN12C renal, in the assay on SNB-19 CNS and in the assay on TK-10 renal were 0.651 µM, 2.64 µM and 10.4 µM, respectively.

Consider `O=C(O)C1=C/C(=C(/c2ccccc2)c2cc(C(=O)O)c(O)c3ccccc23)c2ccccc2C1=O`, for which the TGI in the assay with CAKI-1 renal, in the assay on COLO 205 colon, in the assay on HS 578T breast, in the assay on MCF7 breast, with MOLT-4 leukemia and in the assay with NCI/ADR-RES ovarian was > 100 µM throughout. Further, the TGI in the assay on SN12C renal, with SNB-19 CNS and in the assay on TK-10 renal was > 100 µM throughout.

Consider `COc1ccc2c(c1)OC(N)=C(C#N)C2c1cc(OC)c(OC)c(OC)c1` (stereo not given), for which the concentration for 50% growth inhibition (GI50) with CAKI-1 renal was 0.107 µM; with COLO 205 colon, 0.0244 µM; in the assay on HS 578T breast, 0.0408 µM; in the assay on LOX IMVI melanoma it was 0.0346 µM; in the assay on MCF7 breast, 0.0361 µM; in the assay with MOLT-4 leukemia, 0.0365 µM. The values for the concentration for 50% growth inhibition (GI50) with NCI/ADR-RES ovarian, with SN12C renal and in the assay with SNB-19 CNS were 0.0199 µM, 0.0494 µM and 0.0864 µM, respectively. For the same compound, the TGI was > 100 µM with CAKI-1 renal; 0.061 µM in the assay on COLO 205 colon; > 100 µM in the assay on HS 578T breast; > 100 µM in the assay on LOX IMVI melanoma; > 100 µM in the assay on MCF7 breast; > 100 µM in the assay with MOLT-4 leukemia. The TGI in the assay on NCI/ADR-RES ovarian was 0.0449 µM; in the assay on SN12C renal it was > 100 µM; in the assay with SNB-19 CNS it was > 100 µM.

Turning to `O=C(CS(=O)(=O)c1nc2ccccc2nc1-c1ccccc1)Nc1ccc(F)cc1`, the GI50 was > 100 µM in the assay on CAKI-1 renal; 65.1 µM with COLO 205 colon; 29.7 µM with HS 578T breast; 36.7 µM in the assay on LOX IMVI melanoma; 43.1 µM in the assay with MCF7 breast; 33.7 µM with NCI/ADR-RES ovarian. Besides, the figures for the GI50 in the assay on SN12C renal, in the assay with SNB-19 CNS and in the assay on TK-10 renal were 33.9 µM, 98.9 µM and > 100 µM, respectively. Besides, the TGI was > 100 µM in the assay on CAKI-1 renal; > 100 µM with COLO 205 colon; 94.3 µM in the assay on HS 578T breast; > 100 µM in the assay with LOX IMVI melanoma; > 100 µM in the assay on MCF7 breast; > 100 µM in the assay with NCI/ADR-RES ovarian. Moreover, the TGI in the assay on SN12C renal, with SNB-19 CNS and with TK-10 renal was > 100 µM throughout.

On to `O=[N+]([O-])c1ccc(C2=Nc3ccccc3S(=O)C(c3ccccc3)C2)cc1` (stereo not given), for which the TGI in the assay with CAKI-1 renal is 37.4 µM; in the assay with COLO 205 colon, 40 µM; in the assay with LOX IMVI melanoma, 29.3 µM; in the assay with MOLT-4 leukemia, 57.7 µM; with SN12C renal, 53.7 µM; in the assay on SNB-19 CNS, 68 µM. The TGI in the assay with TK-10 renal came out at 82.9 µM.

As to `CCOC(=O)CSc1cc(Cl)c(C)cc1S(=O)(=O)/N=C(/N=C/c1ccc([N+](=O)[O-])s1)NNC`, the GI50 with CAKI-1 renal is 17.6 µM; in the assay with COLO 205 colon, 16 µM; in the assay with HS 578T breast, 28 µM; in the assay on LOX IMVI melanoma, 17.8 µM; with MCF7 breast it was 32.6 µM; in the assay on MOLT-4 leukemia, 16.7 µM. Also, the GI50 in the assay with NCI/ADR-RES ovarian is 12.7 µM; with SNB-19 CNS, 22.8 µM; in the assay with TK-10 renal it was 23 µM. Further, the TGI with CAKI-1 renal is 49.3 µM; in the assay on COLO 205 colon, 34.8 µM; in the assay on HS 578T breast, 76.7 µM; with LOX IMVI melanoma it was 31.6 µM; with MCF7 breast, > 100 µM; in the assay on MOLT-4 leukemia it was 44.3 µM. Besides, the TGI with NCI/ADR-RES ovarian was found to be 30.7 µM; in the assay on SNB-19 CNS it was 80.1 µM; in the assay with TK-10 renal it was 67.6 µM.

Turning to `COc1cc([N+](=O)[O-])c(OC)cc1-c1nc2sc(C)c(C)n2c1/C(N)=N/C(=N)N`, the GI50 in the assay with CAKI-1 renal is > 100 µM; in the assay on COLO 205 colon it was 13.6 µM; with MCF7 breast, 1.53 µM; with MOLT-4 leukemia it was > 100 µM; in the assay on NCI/ADR-RES ovarian, > 100 µM; with SNB-19 CNS, 2.33 µM. Besides, the GI50 in the assay on TK-10 renal was > 100 µM. Further, the TGI with CAKI-1 renal, with COLO 205 colon, with MCF7 breast, with MOLT-4 leukemia, in the assay on NCI/ADR-RES ovarian and in the assay on SNB-19 CNS was > 100 µM each time. Besides, in the assay with TK-10 renal, the TGI was > 100 µM.
